Positions of bridges follow the written chain, without caps; N, C: chain ends. Residues, ends and D or L forms follow the SMILES beside them. Chains are numbered I, II in the order given.
Tests used:
[1] = tested on: macrophage-like cells from tissues of rheumatoid arthritis patients; assay: Intracellular GSH by ACAS in macrophage-like cells from tissues of rheumatoid arthritis patients (Example 17); type: cell-based, human; details: 3 hours; for relative ratio of oxidative macrophages (reduced amount of intracellular glutathione) compared with saline-added group: added at 2 mM; for induction of oxidative macrophage with the reduced amount of intracellular glutathione: added at 2 μM
Procedure: Synovial tissue was aseptically sampled from tissues resected during joint surgery. The sampled synovial tissue was rinsed in phosphate buffer, from which the surface was peeled off in a petri dish containing the same phosphate buffer. Then, the resulting synovial tissue was cut into pieces with a pair of scissors. To the pieces were added 2% hyaluronidase (manufactured by Sigma), 0.2% DNase (derived from bovine pancreas) and 5% collagenase, for enzymatic treatment at 37° C. for 2 hours. After discarding the resulting debris, a cell fraction recovered by centrifugation was adjusted to 5×10^5 cells/ml in a phenol red-free DMEM culture medium supplemented with 10% FCS (manufactured by Nikken Biology Co.). For 3 hours, the cells were allowed to adhere to the plastic surface. Plastic surface adherent macrophage-like cells harvested with a rubber policeman were then subjected to rinsing in combination with centrifugation three times using the culture medium under ice cooling. The resulting cells were designated as synovial tissue-derived macrophages and were then subjected to the following experiments.
By the same manner as in Example 3, macrophage-like cells were collected from tissues of rheumatoid arthritis patients, and were then suspended and adjusted in a phenol red-free RPMI 1640 culture medium supplemented with 10% fetal calf serum to 3×10^6 cells/ml. The suspension was divided in 100-μl portions on Lab-Tek Chamber Slide (#136439; manufactured by NUNC, CO.), for culturing in 5% CO2 at 37° C. for 3 hours; after discarding the nonadherent cells, the 200-μl serum-free culture medium further containing any of the following chemical agents was fed to the resulting culture, for reaction for 3 hours; and then, the resulting culture was rinsed three times, followed by addition of the serum-free culture medium of 200 μl and addition of monochlorobimane to a final concentration of 10 μM, for reaction for 30 minutes. The amount of intracellular GSH was assayed by imaging analysis with an ACAS system (manufactured by Meridian Co.).

[2] = tested on: reduced glutathione in intraperitoneal macrophages; assay: Reduced glutathione in intraperitoneal macrophages of NOD mice by ACAS (Example 22); type: in vivo; details: doses given per substance
[3] = tested on: adjuvant-induced arthritis; assay: Adjuvant-induced arthritis (AA) in rats, joint swelling (Examples 18 and 19); type: in vivo, Lewis rats; details: Table 4
Procedure: Adjuvant-induced arthritis was triggered in Lewis rats in a conventional manner; and the effects of chemical agents were examined in the animals. Adjuvant-induced arthritis is well known as an experimental arthritis inducible in rats [Taurog et al., Meth. Enzymol. 162, 339-355 (1988)]. […] An adjuvant is administered at 1 mg/0.1 ml per rate at a site of caudal root. The edema reaches its peak about 2 to 3 weeks after the administration of the adjuvant. The edema is triggered by inflammatory infiltration of monocytes. Swollen joints are measured with a micrometer every day; comparing the diameters of the joints prior to and after adjuvant administration and after initiation of the treatment with chemical agents with the diameters of the joints in the control group, the effects of the chemical agents were expressed as the ratio in % of joint swelling in the experimental groups to joint swelling in the control group. The effects were determined on day 15 after adjuvant administration. The chemical agents were given, starting the day next to the day of adjuvant administration, and every 3 days thereafter.
A single dose is 1 mg/kg for (NAC)2 and (NAC-OMe)2; 100 mg/kg for NAC; and 0.1 mg/kg for lentinan.
Adjuvant-induced arthritis was induced in Lewis rats in a conventional manner. In the same manner as in Example 11, the effects of chemical agents were examined in these rats. The conditions were the same as described above.

[4] = tested on: spontaneous onset of insulin-dependent diabetes mellitus; assay: Onset of diabetes mellitus in NOD mice dosed at age 3 to 6 and 9 to 11 weeks (Example 24); type: in vivo; details: doses as in the table line, 15 times in total, judged on week 22, saline 60
Text: NOD mice purchased from Nippon Clair, Co. were naturally mated together. Among the off spring mice, a colony of NOD mice with a high frequency of the spontaneous onset of insulin-dependent diabetes mellitus was established. Female NOD mice from the colony were used for the present experiment. […] Urine glucose was detected, using Uropaper (BM Test Glucose 5000, manufactured by Yamanouchi Pharmaceuticals, Co. Ltd.). The onset was judged on week 22.

[5] = tested on: spontaneous onset of insulin-dependent diabetes mellitus; assay: Onset of diabetes mellitus in NOD mice dosed at age 9 to 11 weeks (Example 25); type: in vivo; details: nine times
Text: NOD mice purchased from Nippon Clair, Co. were naturally mated together. Among the off spring mice, a colony of NOD mice with a high frequency of the spontaneous onset of insulin-dependent diabetes mellitus was established. Female NOD mice from the colony were used for the present experiment. Chemical agents were orally or intraperitoneally administered to the NOD mice aged 9 to 11 weeks three times per week, in total nine times; and based on the test results of urine glucose, positive or negative, the onset of diabetes mellitus was followed once per week. Urine glucose was detected, using Uropaper (BM Test Glucose 5000, manufactured by Yamanouchi Pharmaceuticals, Co. Ltd.). The onset was judged on week 22; the doses were the same as in Example 24.

[6] = tested on: insulin-non-dependent diabetes mellitus; assay: Blood sugar level in db/db mice (Example 26); type: in vivo; details: intraperitoneal, age 4 to 9 weeks, three times per week; at satiation; saline 100
Text: db/db mice purchased from Nippon Clair, Co. were naturally mated together. Among the off spring mice, a colony of db/db mice with a high frequency of the spontaneous onset of insulin-non-dependent diabetes mellitus was established. Male db/db mice from the colony were used for the present experiment. Chemical agents were intraperitoneally administered to the db/db mice aged 4 to 9 weeks three times per week, in total 18 times; and based on the level of blood sugar in the mice at satiation, the effects of the chemical agents on the improvement of the diseased conditions of insulin-non-dependent diabetes mellitus were followed once per week. The doses were the same as in Example 24.

[7] = tested on: peritoneal exudate cells (macrophages); assay: Induction of oxidative or reductive macrophages by administration, monochlorobimane/ACAS (Example 9); type: in vivo, DBA/2 mice; details: intraperitoneally 20 μg/0.5 ml/h each, twice a week for three weeks, 9-11 weeks of age
Procedure: This was clarified by harvesting peritoneal exudate cells 20 hours after the completion of the administration, adhering the cells to the plastic surface, then reacting the cells with 10 μM of monochlorobimane at 37° C. for 30 minutes, and analyzing the reaction product with ACAS. The increase in the amounts of oxidative macrophages can easily be determined visually from the fact that almost no reaction product with monochlorobimane is observed, namely, a gray or blue image is provided, and the increase in the amounts of reductive macrophages from the fact that a red or yellow image is provided respectively. […] Meanwhile, the same examination was conducted by harvesting peritoneal exudate cells after 20 hours of the administration of 2 mg of N-acetylcystine (NAC).

[8] = intraperitoneal dosing on alternate days from age 3-4 weeks
[9] = oral dosing on alternate days from age 3-4 weeks
[10] = intraperitoneal, judged on week 22, doses as in Example 24, saline 67

Row | Molecule | relative ratio of oxidative macrophages (reduced amount of intracellular glutathione) compared with saline-added group [1] | relative ratio of oxidative macrophages compared with saline-dosed NOD mice [2, 8] | relative ratio of oxidative macrophages compared with saline-dosed NOD mice [2, 9] | induction of oxidative macrophages on ACAS [7] | induction of oxidative macrophage with the reduced amount of intracellular glutathione [1] | further results
1 | CC(=O)N[C@@H](CS)C(=O)OCCCCO[N+](=O)[O-] [N-acetylcysteine nitroxybutyl ester] | same action was also observed | same action is also observed | same action is also observed |  |  | 
2 | COC(=O)C(N)CCC(=O)NC(CS)C(=O)OC (stereo not shown) [γ-glutamylcysteine dimethyl ester] | same action was also observed | same action is also observed |  |  |  | Ratio in % of joint swelling in experimental groups to joint swelling in control group ([3]; intraperitoneal, 100 mg/kg): 120%; Frequency (%) of onset of diabetes mellitus ([4]; intraperitoneal): 10%; Frequency (%) of onset of diabetes mellitus ([4]; oral): 20%; Frequency (%) of onset of diabetes mellitus [5, 10]: 55%; Relative ratio % of blood sugar level, 6 weeks [6]: 85%; Relative ratio % of blood sugar level, 7 weeks [6]: 65%; Relative ratio % of blood sugar level, 8 weeks [6]: 60%
3 | COC(=O)[C@H](CSSC[C@H](NC(=O)[C@H](C)N)C(=O)OC)NC(=O)[C@H](C)N [(NAlaC-OMe)2, N,N′-di-L-alanylcystine dimethyl ester] (I: H-Ala-Cys-OMe / II: H-Ala-Cys-OMe; disulfide I:2-II:2) |  |  |  | induction of oxidative macrophages was confirmed | confirmed | Ratio in % of joint swelling in experimental groups to joint swelling in control group ([3]; intravenous): 45%; Frequency (%) of onset of diabetes mellitus ([5]; route not given, judged on week 22, saline 67): 11%
4 | CC(=O)N[C@@H](CSSC[C@H](NC(C)=O)C(=O)OC(C)C)C(=O)OC(C)C [(NAC-OiPr)2, N,N′-diacetylcystine diisopropyl ester] |  |  |  | induction of oxidative macrophages was confirmed | confirmed | 
5 | CC(=O)N[C@@H](CSSC[C@H](NC(C)=O)C(=O)OCCCCO[N+](=O)[O-])C(=O)O [N,N′-diacetylcystine nitroxybutyl ester] |  |  |  | induction of oxidative macrophages was confirmed | confirmed | 
6 | glutathione nitroxybutyl ester | same action was also observed | same action is also observed | same action is also observed |  |  | 
7 | CCOC(=O)CNC(=O)[C@H](CS)NC(=O)CC[C@H](N)C(=O)OCC [glutathione diethyl ester] | same action was also observed | same action is also observed | same action is also observed |  |  | Ratio in % of joint swelling in experimental groups to joint swelling in control group ([3]; intraperitoneal, 100 mg/kg): 132%; Frequency (%) of onset of diabetes mellitus ([4]; intraperitoneal): 0%; Frequency (%) of onset of diabetes mellitus ([4]; oral): 0%; Frequency (%) of onset of diabetes mellitus [5, 10]: 67%; Relative ratio % of blood sugar level, 6 weeks [6]: 82%; Relative ratio % of blood sugar level, 7 weeks [6]: 62%; Relative ratio % of blood sugar level, 8 weeks [6]: 60%
8 | O=C(O)CCCC[C@@H]1CCSS1 (racemic) [lipoic acid] |  | same action is also observed |  |  |  | 
